Earlier results, collected in article PMC7044277 (Nature Communications, 2020).
Entries after “also recorded” stand apart in the source; their conditions may differ. Read-outs that look alike come from different tables or passages of the source.

Target: DRD2 F1103.28A (Homo sapiens, UniProt P14416, F110A)
Details: cited from earlier work

Sequence of DRD2 F1103.28A (P14416 whole entry F110A): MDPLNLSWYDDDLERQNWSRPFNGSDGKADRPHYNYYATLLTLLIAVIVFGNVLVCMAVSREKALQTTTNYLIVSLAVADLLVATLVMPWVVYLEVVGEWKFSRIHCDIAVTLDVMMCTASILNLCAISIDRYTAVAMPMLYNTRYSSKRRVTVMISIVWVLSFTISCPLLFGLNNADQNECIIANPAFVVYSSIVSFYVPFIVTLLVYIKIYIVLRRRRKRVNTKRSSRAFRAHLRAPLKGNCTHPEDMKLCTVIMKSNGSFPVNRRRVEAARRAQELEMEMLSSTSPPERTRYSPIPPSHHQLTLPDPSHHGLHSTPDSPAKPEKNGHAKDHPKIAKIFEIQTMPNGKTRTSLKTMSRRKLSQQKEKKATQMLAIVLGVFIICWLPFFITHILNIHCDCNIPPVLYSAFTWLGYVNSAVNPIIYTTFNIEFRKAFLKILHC

Row | Structure (SMILES) | effect of Phe110^3.28Ala mutation on binding | effect of Phe110^3.28Ala mutation on binding (previous published studies)
1 | CNc1cc(OC)c(C(=O)NC2CCN(Cc3ccccc3)C2C)cc1Cl (centres unmarked) [nemonapride] | did not enhance the binding; also recorded: didn’t enhance the binding | 
2 | Cc1nc2n(c(=O)c1CCN1CCC(c3noc4cc(F)ccc34)CC1)CCCC2 [risperidone] |  | did not enhance the binding; also recorded: didn’t enhance the binding
